We go through 11 molecules from article PMC7611705 (Science translational medicine, 2021).

Structures can show the parent of a compound that is named as a salt. Some results are limits rather than exact numbers.

For test [1], the system named is A549 cells. The test can be described thus: Western blot of BCL2, cIAP1 and cIAP2 expression in A549 cells. It is filed as cell-based. The conditions noted are these: 24 h.
For test [2], the system named is A549 cells. Description: Caspase activation in A549 cells. The conditions noted are these: cisplatin 12.5 μM 24 h. Format: cell-based.
Test [3] deals with A549 cells. The test can be described thus: Random cell migration / 3D collagen-I invasion of A549 cells. Format: cell-based. The conditions noted are these: for cell migration/invasiveness: inhibitors 10 μM.
Test [4] deals with RSK4 N-terminal kinase domain (RSK4-NTKD) (Homo sapiens, UniProt Q9UK32). Description: Differential scanning fluorimetry. Format: binding. As to conditions: inactive/dephosphorylated (APO) vs fully-active (ATP).
Sequence of RSK4 N-terminal kinase domain (RSK4-NTKD) (Q9UK32 48-349): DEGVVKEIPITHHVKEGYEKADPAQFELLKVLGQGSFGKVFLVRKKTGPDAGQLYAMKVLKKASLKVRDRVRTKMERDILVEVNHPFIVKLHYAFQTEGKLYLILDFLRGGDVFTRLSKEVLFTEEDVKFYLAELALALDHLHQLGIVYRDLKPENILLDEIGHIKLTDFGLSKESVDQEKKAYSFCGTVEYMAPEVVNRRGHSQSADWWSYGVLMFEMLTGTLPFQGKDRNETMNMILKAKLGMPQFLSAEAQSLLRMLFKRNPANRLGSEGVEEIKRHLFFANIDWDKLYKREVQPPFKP
Test [5] addresses T1, RSK4 (Homo sapiens, UniProt Q9UK32). The test can be described thus: biochemical. The conditions noted are these: for activity in RSK4 HTRF-activation assay (inhibitor or inactive): floxacin family members.
Test [6] concerns patients undergoing chemotherapy. Description: Retrospective overall survival analysis of the SIGNIFICANT trial. It is filed as in vivo, human.
The subject of test [7] is cIAP1 and cIAP2. Description: Cellular cIAP1 and cIAP2 expression after levofloxacin. The conditions noted are these: concentrations achievable from the clinical trial dose. It is filed as cell-based.
For test [8], the target named is T1, RSK4. Format: biochemical.
The target of test [9] is ERK (Homo sapiens, UniProt P28482). The test can be described thus: ERK activity. It is filed as biochemical.
Sequence of ERK (P28482 whole entry): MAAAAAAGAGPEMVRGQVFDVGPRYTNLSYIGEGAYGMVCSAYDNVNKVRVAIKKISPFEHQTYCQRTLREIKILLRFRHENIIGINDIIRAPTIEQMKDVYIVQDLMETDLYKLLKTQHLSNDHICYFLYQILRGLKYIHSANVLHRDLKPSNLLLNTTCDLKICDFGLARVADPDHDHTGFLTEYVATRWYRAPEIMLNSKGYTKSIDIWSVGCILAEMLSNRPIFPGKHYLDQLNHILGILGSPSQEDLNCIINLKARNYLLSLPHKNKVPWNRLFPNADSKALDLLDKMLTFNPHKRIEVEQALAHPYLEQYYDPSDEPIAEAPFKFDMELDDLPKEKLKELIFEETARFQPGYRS
The test system of test [10] is bladder cancer explants. The test can be described thus: Patient-derived bladder cancer explants. The conditions noted are these: synergistic in two, additive in one.
The target in test [11] is RSK1 (Homo sapiens, UniProt Q15418). The test can be described thus: RSK1 activation in cells. It is filed as cell-based. As to conditions: preliminary data.
Sequence of RSK1 (Q15418 whole entry): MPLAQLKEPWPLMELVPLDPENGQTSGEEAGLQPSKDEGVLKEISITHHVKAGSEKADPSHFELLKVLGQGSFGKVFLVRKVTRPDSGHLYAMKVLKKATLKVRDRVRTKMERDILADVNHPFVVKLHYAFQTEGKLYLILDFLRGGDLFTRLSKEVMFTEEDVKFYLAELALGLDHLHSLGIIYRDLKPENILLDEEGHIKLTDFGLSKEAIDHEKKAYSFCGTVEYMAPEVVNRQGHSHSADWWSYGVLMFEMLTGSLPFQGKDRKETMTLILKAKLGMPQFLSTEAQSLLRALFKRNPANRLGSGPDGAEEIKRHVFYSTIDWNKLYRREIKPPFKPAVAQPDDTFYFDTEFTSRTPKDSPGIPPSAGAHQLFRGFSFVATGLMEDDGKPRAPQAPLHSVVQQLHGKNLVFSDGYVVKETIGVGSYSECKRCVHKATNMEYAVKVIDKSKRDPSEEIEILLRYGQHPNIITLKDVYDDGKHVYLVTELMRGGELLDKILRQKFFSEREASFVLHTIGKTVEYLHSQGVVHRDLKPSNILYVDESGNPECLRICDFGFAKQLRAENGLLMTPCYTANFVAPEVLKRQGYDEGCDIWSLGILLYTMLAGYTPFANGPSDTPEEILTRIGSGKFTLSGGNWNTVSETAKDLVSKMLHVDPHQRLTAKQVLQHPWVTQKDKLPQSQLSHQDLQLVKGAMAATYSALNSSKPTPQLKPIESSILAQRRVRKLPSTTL
Test [12] concerns A549-Luc xenograft. The test can be described thus: A549-Luc subcutaneous xenograft in nude mice. Format: in vivo. As to conditions: 30 mg/kg daily oral gavage, 14 days.
Test [13] concerns panel of 140 kinases. Description: In-vitro activity screen against a panel of 140 kinases. Format: biochemical. The conditions noted are these: 10 μM.
In test [14] the test system is A549 cells. Description: Cisplatin/taxol sensitisation of A549 cells. Format: cell-based.

T1 sequence (Q9UK32 whole entry): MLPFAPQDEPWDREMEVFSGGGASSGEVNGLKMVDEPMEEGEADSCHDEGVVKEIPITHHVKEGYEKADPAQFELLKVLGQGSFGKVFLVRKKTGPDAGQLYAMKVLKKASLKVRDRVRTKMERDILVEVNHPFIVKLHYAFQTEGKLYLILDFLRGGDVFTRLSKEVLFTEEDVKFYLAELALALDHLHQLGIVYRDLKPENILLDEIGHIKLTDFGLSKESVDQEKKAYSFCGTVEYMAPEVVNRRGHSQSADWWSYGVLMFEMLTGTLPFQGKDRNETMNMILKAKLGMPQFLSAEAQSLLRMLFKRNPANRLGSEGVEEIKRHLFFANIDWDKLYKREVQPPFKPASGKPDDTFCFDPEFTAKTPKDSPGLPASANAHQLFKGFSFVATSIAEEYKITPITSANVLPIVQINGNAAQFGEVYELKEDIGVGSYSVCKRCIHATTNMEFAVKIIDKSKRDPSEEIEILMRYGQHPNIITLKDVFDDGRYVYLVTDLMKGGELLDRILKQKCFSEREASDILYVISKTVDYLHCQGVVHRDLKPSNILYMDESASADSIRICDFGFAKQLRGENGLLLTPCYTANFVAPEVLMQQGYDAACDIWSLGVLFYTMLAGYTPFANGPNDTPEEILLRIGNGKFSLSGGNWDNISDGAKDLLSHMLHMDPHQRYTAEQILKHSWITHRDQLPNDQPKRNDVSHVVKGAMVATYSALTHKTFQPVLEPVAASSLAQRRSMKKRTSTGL

Turning to `CC(C)CCN1c2nc(Nc3cc(F)c(O)c(F)c3)ncc2N(C)C(=O)C1C` (centres unmarked) [BI-D1870], the “expression of BCL2 and cIAP1/2” value in test [1] was “an effect not seen”. Also, the “caspase activation in response to cisplatin” value in [2] is “failed to promote cisplatin-induced caspase activation”.

As for `CC(=O)O[C@@H]1[C@@H](OC(C)=O)[C@@H](O)[C@H](Oc2c(-c3ccc(O)cc3)oc3cc(O)cc(O)c3c2=O)O[C@H]1C` [SL-0101], the “invasiveness of A549 cells with pan-RSK inhibitor” value in test [3] is given as “promotes lung cancer invasiveness”.

Consider `O=C(O)c1cn(C2CC2)c2cc(N3CCNCC3)c(F)cc2c1=O` [ciprofloxacin], for which, in test [1], the “expression of BCL2 and cIAP1/2” value is listed as “an effect not seen”. Further, the “binding to RSK4-NTKD” value in test [4] was “failed to bind RSK4”. The cell migration/invasiveness entry in test [3] is “did not impair cell invasiveness”.

For `CN1C[C@@H]2C[C@H]1CN2c1cc2c(cc1F)c(=O)c(C(=O)O)cn2C1CC1` [danofloxacin], the “activity in RSK4 HTRF-activation assay (inhibitor or inactive)” value (shortened to “activity … (inhibitor or inactive)”) in test [5] is “inactive analogues”. Also, the cell migration/invasiveness entry in [3] is given as “did not impair cell invasiveness”.

For `C[C@H]1COc2c(N3CCN(C)CC3)c(F)cc3c(=O)c(C(=O)O)cn1c23` [levofloxacin], the “hazard ratio for overall survival vs placebo” value in [6] (adherent patients (n=937), 95% CI 0.69-0.999, p=0.048) was 0.83; in [6] (non-adherent patients (n=543), 95% CI 0.89-1.40, p=0.36), 1.11. Besides, the “hazard ratio in lung and bladder cancer patients compared to the entire cohort” value in [6] (lung and bladder cancer patients) is on record as “further improved”. Also, the median overall survival in test [6] (patients adhering to trial treatment (n=937)) was found to be 72 months. Moreover, the “cellular cIAP1 and cIAP2 expression” value in test [7] is “decreased cellular cIAP1 and cIAP2 expression”. Also, in test [5], the “activity … (inhibitor or inactive)” value is recorded as “inhibited RSK4 activation”.

For the molecule `CN1CCN(c2c(F)cc3c(=O)c(C(=O)O)cn4c3c2OCN4C)CC1` [marbofloxacin], the “activity … (inhibitor or inactive)” value in test [5] is “additional inhibitors”.

As for `COc1c(N2C[C@@H]3CCCN[C@@H]3C2)c(F)cc2c(=O)c(C(=O)O)cn(C3CC3)c12` [moxifloxacin], the “α (non-competitive binding to Enzyme and Enzyme-Substrate state)” value in test [8] is 1. In [8] (sub-maximal inhibition), the “effect on ATP Km and Vmax of RSK4” value was “maintained Km and displayed reduced Vmax”. Moreover, in test [5], half-maximal inhibition (IC50) was put at 6.2 µM, the “mode of inhibition of RSK4 activation” value was “non-ATP competitive reversible inhibitor of RSK4 activation”, the “preference RSK4 activation vs fully-active RSK4” value is on record as “preference for preventing RSK4 activation rather than inhibiting fully-active RSK4” and the “selectivity RSK4 vs RSK1” value is recorded as “favoured RSK4 over RSK1”. The inhibition at 30 µM in test [5] (read-out: inhibition of RSK4 activation) was more than 75%. For the same molecule, the “effect on ERK activity” value in test [9] is listed as “did not interfere with ERK activity”. In test [3], the cell migration/invasiveness result is recorded as “shared this ability”.

As to `CCn1cc(C(=O)O)c(=O)c2cnc(N3CCCC3)nc21` [piromidic acid], the “activity … (inhibitor or inactive)” value in test [5] was “inactive analogues”.

Regarding `CN1CCN(c2c(F)cc3c(=O)c(C(=O)O)cn4c3c2SCC4)CC1` [rufloxacin], in test [5], the “activity … (inhibitor or inactive)” value is listed as “additional inhibitors”.

On to `NC1CCN(c2nc3c(cc2F)c(=O)c(C(=O)O)cn3-c2ccc(F)cc2F)C1` (centres unmarked) [tosufloxacin, tosufloxacin tosylate], for which the “activity … (inhibitor or inactive)” value in test [5] is listed as “additional inhibitors”. Moreover, the cell migration/invasiveness result in [3] was “shared this ability”.

`N[C@@H]1[C@H]2CN(c3nc4c(cc3F)c(=O)c(C(=O)O)cn4-c3ccc(F)cc3F)C[C@@H]12` [trovafloxacin]: the “expression of BCL2 and cIAP1/2” value in test [1] is “decreased expression of BCL2 and cIAP1/2”. In addition, in test [10], the “benefit of combination with cisplatin in explants” value is given as “beneficial in 3 out of 4 patient-derived bladder cancer explants”. In [4], the “binding to RSK4-NTKD” value was “bound the inactive/dephosphorylated, but not the fully-active”. Besides, the “activation of RSK1 in cells” value in [11] is “does not inhibit the activation of RSK1 in cells”. Moreover, the “tumour growth vs vehicle-only” value in test [12] was “significantly (p<0.05) decreased tumour growth”. For the same molecule, in test [5], 10 µM corresponded to half-maximal inhibition (IC50) and the “activity … (inhibitor or inactive)” value is “additional inhibitors”. The “inhibition of other kinases” value in [13] is listed as “No other kinase was substantially inhibited”. The “caspase activation in response to cisplatin” value in [2] is given as “promotion of caspase activation”. The “sensitisation of A549 cells to cisplatin” value in test [14] (7.5 μM, cisplatin 12.5 μM for 72 h) is given as “reducing the IC50 for cisplatin”. Also, in [14] (A549 cells), the “concentration giving maximal potentiation of cisplatin or taxol effects” value is “≈ 10 μM” and the “nature of the relationship with cisplatin” value is on record as “synergistic”. In [3], the cell migration/invasiveness result is recorded as “reproduced the inhibition of cell migration/invasiveness”.
